Assay results reported in PMC11236979, “Iron-sulphur protein catalysed [4+2] cycloadditions in natural product biosynthesis” (Nature Communications, 2024).

Tested on: T1, VtlG (P450)
T1 construct: recombinant from E. coli, purified; haem P450 monooxygenase
Experiment: UPLC product quantification at […] nm, Michaelis-Menten fit
Type: biochemical, Streptomyces spiroverticillatus
Conditions: mono-hydroxylation of 4 to 6; 5 nM VtlG, commercial spinach Fd 0.1 mg/mL, spinach FNR 1 unit/mL, 1 mM NADPH; 50 mM Tris-HCl pH 7.5, 30 °C

For `CC1=CC=CC=CC(C)CNC(=O)CC(=O)C=CC=CCC(O)CC(O)C=CC=C1` (stereo not shown) [compound 4], the Km was 0.84 ± 0.26 µM.
